Earlier results as cited in patent US9919015B2, “Composition and method for inhibiting herpesviridae infections” (VIRATEC PTY LTD, priority 2005, dated 2018).
Like-named read-outs stand apart in the source and are kept apart here.

Key:
[1] = tested on: primary herpetic gingivostomatitis; settings: Primary Herpetic Stomatitis
[2] = tested on: recurrent herpes labialis; settings: treatment commenced within 1 hour; Rabon et al. (1989)
[3] = tested on: recurrent genital herpetic infection; settings: for healing rate, oral acyclovir: Nilsen et al. (1982); for healing rate, topical acyclovir: Corey et al. (1982)
herpes zoster = settings: Esmann et al. (1982); Bean et al (1983)
[4] = tested on: Oral Hairy Leukoplakia (EBV)

For `Nc1nc2c(ncn2COCCO)c(=O)[nH]1` [Acyclovir, acyclovir], the “Expected healing time Acyclovir (upper end)” value [1] is listed as ≤ 4 weeks, the “Expected healing time Acyclovir” value ([1]; treated symptomatically or with acyclovir, listed as acyclovir) is listed as 10 to 28 days and the “complete healing with acyclovir” value [2] is listed as 7 to 8 days. For the same compound, the “time to analgesia with acyclovir” value [2] was 1 to 2 days, the “healing rate, oral acyclovir” value [3] was 5 days oral and the “healing rate, oral acyclovir” value ([3]; listed as acyclovir) was 5 days. For the same compound, the “healing rate, topical acyclovir” value [3] was 7.4 days topical, the “healing rate, topical acyclovir” value ([3]; listed as acyclovir) was 7.4 days and the “time to initial crusting with acyclovir” value (herpes zoster) was 2 to 3 days. For the same compound, the “response, subjects” value ([4]; oral acyclovir, after 10 days, Resnick et al (1988)) was 5/6, the “response time with oral acyclovir” value ([4]; Herbst et al. (1989), Resnick et al (1988)) was 10-20 days - oral and the “response time with oral acyclovir” value ([4]; Herbst et al. (1989), Resnick et al (1988), listed as acyclovir) was 10 to 20 days. The “resolution of OHL, subjects” value ([4]; systemic acyclovir, after 20 days, Herbst et al. (1989)) was 12/14.
